Test results from patent US4278681A, “Antibacterial amide compounds and means for using the same” (Warner-Lambert Co., priority 1980, dated 1981).
Converted amounts (≈) assume the structure as drawn.

Key:
Test in all cases: Minimal Inhibitory Concentration by Microtitration, dilution in TSB
Format in all cases: cell-based
[1] = tested on: Enterobacter cloacae IMM-11; details: IMM11, TSB (Trypticase soy broth)
From the text: (§1) Minimal Inhibitory Concentration by Microtitration (μg/ml)
(§2) Dilution in TSB (Trypticase soy broth).

[2] = tested on: Klebsiella pneumoniae MGH-2; details: MGH2, TSB (Trypticase soy broth)
From the text: as §1, §2

[3] = tested on: Pseudomonas aeruginosa BRK 12-4-4; details: BRK1244, TSB (Trypticase soy broth)
From the text: as §1, §2

[4] = tested on: Pseudomonas aeruginosa UI-18; details: UI18, TSB (Trypticase soy broth)
From the text: as §1, §2

[5] = tested on: Serratia marcescens IMM-16; details: IMM16, TSB (Trypticase soy broth)
From the text: as §1, §2

Row | Compound | MIC [1] | MIC [2] | MIC [3] | MIC [4] | MIC [5]
1 | CC(=O)N[C@@H](C)C(=O)Nc1ccc(-c2ccc(C(=O)N[C@@H](C(=O)N[C@@H]3C(=O)N4[C@@H]3SC(C)(C)[C@@H]4C(=O)O)c3ccc(O)cc3)c(=O)[nH]2)cc1 | 1.6 mg/L (≈ 2.32 µM) | 3.1 mg/L (≈ 4.49 µM) | 1.6 mg/L (≈ 2.32 µM) | 0.8 mg/L (≈ 1.16 µM) | 3.1 mg/L (≈ 4.49 µM)
2 | CC(=O)NCCCC(=O)Nc1ccc(-c2ccc(C(=O)N[C@@H](C(=O)N[C@@H]3C(=O)N4[C@@H]3SC(C)(C)[C@@H]4C(=O)O)c3ccc(O)cc3)c(=O)[nH]2)cc1 | 6.3 mg/L (≈ 8.94 µM) | 3.1 mg/L (≈ 4.4 µM) | 3.1 mg/L (≈ 4.4 µM) | 1.6 mg/L (≈ 2.27 µM) | 3.1 mg/L (≈ 4.4 µM)
3 | CC(=O)N[C@@H](CCC(N)=O)C(=O)Nc1ccc(-c2ccc(C(=O)N[C@@H](C(=O)N[C@@H]3C(=O)N4[C@@H]3SC(C)(C)[C@@H]4C(=O)O)c3ccc(O)cc3)c(=O)[nH]2)cc1 | 3.1 mg/L (≈ 4.15 µM) | 12.5 mg/L (≈ 16.7 µM) | 3.1 mg/L (≈ 4.15 µM) | 1.6 mg/L (≈ 2.14 µM) | 3.1 mg/L (≈ 4.15 µM)
4 | C[C@H](NC=O)C(=O)Nc1ccc(-c2ccc(C(=O)N[C@@H](C(=O)N[C@@H]3C(=O)N4[C@@H]3SC(C)(C)[C@@H]4C(=O)O)c3ccc(O)cc3)c(=O)[nH]2)cc1 | 3.1 mg/L (≈ 4.58 µM) | 6.3 mg/L (≈ 9.31 µM) | 1.6 mg/L (≈ 2.36 µM) | 1.6 mg/L (≈ 2.36 µM) | 3.1 mg/L (≈ 4.58 µM)
5 | CC(=O)N[C@@H](C)C(=O)N[C@@H](C)C(=O)Nc1ccc(-c2ccc(C(=O)N[C@@H](C(=O)N[C@@H]3C(=O)N4[C@@H]3SC(C)(C)[C@@H]4C(=O)O)c3ccc(O)cc3)c(=O)[nH]2)cc1 | 12.5 mg/L (≈ 16.4 µM) | 25 mg/L (≈ 32.8 µM) | 6.3 mg/L (≈ 8.27 µM) | 3.1 mg/L (≈ 4.07 µM) | 6.3 mg/L (≈ 8.27 µM)
6 | CC1(C)S[C@@H]2[C@H](NC(=O)[C@H](NC(=O)c3ccc(-c4ccc(NC(=O)[C@@H]5CCC(=O)N5)cc4)[nH]c3=O)c3ccc(O)cc3)C(=O)N2[C@H]1C(=O)O | 1.6 mg/L (≈ 2.32 µM) | 6.3 mg/L (≈ 9.15 µM) | 1.6 mg/L (≈ 2.32 µM) | 3.1 mg/L (≈ 4.5 µM) | 3.1 mg/L (≈ 4.5 µM)
7 | C[C@H](NC(N)=O)C(=O)Nc1ccc(-c2ccc(C(=O)N[C@@H](C(=O)N[C@@H]3C(=O)N4[C@@H]3SC(C)(C)[C@@H]4C(=O)O)c3ccc(O)cc3)c(=O)[nH]2)cc1 | 6.3 mg/L (≈ 9.11 µM) | 6.3 mg/L (≈ 9.11 µM) | 1.6 mg/L (≈ 2.31 µM) | 1.6 mg/L (≈ 2.31 µM) | 3.1 mg/L (≈ 4.48 µM)
8 | CN1C(=O)CC[C@H]1C(=O)Nc1ccc(-c2ccc(C(=O)N[C@@H](C(=O)N[C@@H]3C(=O)N4[C@@H]3SC(C)(C)[C@@H]4C(=O)O)c3ccc(O)cc3)c(=O)[nH]2)cc1 | 3.1 mg/L (≈ 4.41 µM) | 6.3 mg/L (≈ 8.96 µM) | 1.6 mg/L (≈ 2.28 µM) | 0.8 mg/L (≈ 1.14 µM) | 6.3 mg/L (≈ 8.96 µM)
9 | CC(=O)NCCCC[C@H](NC(C)=O)C(=O)Nc1ccc(-c2ccc(C(=O)N[C@@H](C(=O)N[C@@H]3C(=O)N4[C@@H]3SC(C)(C)[C@@H]4C(=O)O)c3ccc(O)cc3)c(=O)[nH]2)cc1 | 12.5 mg/L (≈ 15.8 µM) | 25 mg/L (≈ 31.7 µM) | 6.3 mg/L (≈ 7.98 µM) | 6.3 mg/L (≈ 7.98 µM) | 50 mg/L (≈ 63.3 µM)
10 | CC1(C)S[C@@H]2[C@H](NC(=O)[C@H](NC(=O)c3ccc(-c4ccc(NC(=O)CN5CCCC5=O)cc4)[nH]c3=O)c3ccc(O)cc3)C(=O)N2[C@H]1C(=O)O | 3.1 mg/L (≈ 4.41 µM) | 6.3 mg/L (≈ 8.96 µM) | 3.1 mg/L (≈ 4.41 µM) | 3.1 mg/L (≈ 4.41 µM) | 6.3 mg/L (≈ 8.96 µM)

Further lines, results first:

Row | MIC [1] | MIC [2] | MIC [3] | MIC [4] | MIC [5] | Compound
11 | 6.3 mg/L (≈ 8.79 µM) | 12.5 mg/L (≈ 17.4 µM) | 1.6 mg/L (≈ 2.23 µM) | 1.6 mg/L (≈ 2.23 µM) | 6.3 mg/L (≈ 8.79 µM) | CC(=O)N1CCC[C@H]1C(=O)Nc1ccc(-c2ccc(C(=O)N[C@@H](C(=O)N[C@@H]3C(=O)N4[C@@H]3SC(C)(C)[C@@H]4C(=O)O)c3ccc(O)cc3)c(=O)[nH]2)cc1
12 | 3.1 mg/L (≈ 4.23 µM) | 12.5 mg/L (≈ 17.1 µM) | 3.1 mg/L (≈ 4.23 µM) | 1.6 mg/L (≈ 2.18 µM) | 6.3 mg/L (≈ 8.6 µM) | CC(=O)N1CC(O)C[C@H]1C(=O)Nc1ccc(-c2ccc(C(=O)N[C@@H](C(=O)N[C@@H]3C(=O)N4[C@@H]3SC(C)(C)[C@@H]4C(=O)O)c3ccc(O)cc3)c(=O)[nH]2)cc1 (some centres unmarked)
13 | 6.3 mg/L (≈ 8.13 µM) | 12.5 mg/L (≈ 16.1 µM) | 1.6 mg/L (≈ 2.07 µM) | 1.6 mg/L (≈ 2.07 µM) | 6.3 mg/L (≈ 8.13 µM) | CC(=O)OC1C[C@@H](C(=O)Nc2ccc(-c3ccc(C(=O)N[C@@H](C(=O)N[C@@H]4C(=O)N5[C@@H]4SC(C)(C)[C@@H]5C(=O)O)c4ccc(O)cc4)c(=O)[nH]3)cc2)N(C(C)=O)C1 (some centres unmarked)
14 | 12.5 mg/L (≈ 17.1 µM) | 25 mg/L (≈ 34.2 µM) | 6.3 mg/L (≈ 8.62 µM) | 3.1 mg/L (≈ 4.24 µM) | 12.5 mg/L (≈ 17.1 µM) | CC(=O)N1CC(=O)C[C@H]1C(=O)Nc1ccc(-c2ccc(C(=O)N[C@@H](C(=O)N[C@@H]3C(=O)N4[C@@H]3SC(C)(C)[C@@H]4C(=O)O)c3ccc(O)cc3)c(=O)[nH]2)cc1
15 | 12.5 mg/L (≈ 16.1 µM) | 25 mg/L (≈ 32.3 µM) | 6.3 mg/L (≈ 8.13 µM) | 3.1 mg/L (≈ 4 µM) | 12.5 mg/L (≈ 16.1 µM) | CC(=O)O[C@@H]1C[C@H](C(=O)Nc2ccc(-c3ccc(C(=O)N[C@@H](C(=O)N[C@@H]4C(=O)N5[C@@H]4SC(C)(C)[C@@H]5C(=O)O)c4ccc(O)cc4)c(=O)[nH]3)cc2)N(C(C)=O)C1
16 | 12.5 mg/L (≈ 16.7 µM) | 25 mg/L (≈ 33.5 µM) | 6.3 mg/L (≈ 8.44 µM) | 3.1 mg/L (≈ 4.15 µM) | 12.5 mg/L (≈ 16.7 µM) | COC1C[C@@H](C(=O)Nc2ccc(-c3ccc(C(=O)N[C@@H](C(=O)N[C@@H]4C(=O)N5[C@@H]4SC(C)(C)[C@@H]5C(=O)O)c4ccc(O)cc4)c(=O)[nH]3)cc2)N(C(C)=O)C1 (some centres unmarked)
17 | 6.3 mg/L (≈ 8.81 µM) | 12.5 mg/L (≈ 17.5 µM) | 3.1 mg/L (≈ 4.34 µM) | 3.1 mg/L (≈ 4.34 µM) | 12.5 mg/L (≈ 17.5 µM) | CC(=O)N1CC=CC1C(=O)Nc1ccc(-c2ccc(C(=O)N[C@@H](C(=O)N[C@@H]3C(=O)N4[C@@H]3SC(C)(C)[C@@H]4C(=O)O)c3ccc(O)cc3)c(=O)[nH]2)cc1 (some centres unmarked)
18 | 1.6 mg/L (≈ 2.1 µM) | 6.3 mg/L (≈ 8.28 µM) | 0.8 mg/L (≈ 1.05 µM) | 0.8 mg/L (≈ 1.05 µM) | 6.3 mg/L (≈ 8.28 µM) | CC(=O)N1CC(OC=O)C[C@H]1C(=O)Nc1ccc(-c2ccc(C(=O)N[C@@H](C(=O)N[C@@H]3C(=O)N4[C@@H]3SC(C)(C)[C@@H]4C(=O)O)c3ccc(O)cc3)c(=O)[nH]2)cc1 (some centres unmarked)
19 | 6.3 mg/L (≈ 7.99 µM) | 12.5 mg/L (≈ 15.8 µM) | 3.1 mg/L (≈ 3.93 µM) | 1.6 mg/L (≈ 2.03 µM) | 6.3 mg/L (≈ 7.99 µM) | CCC(=O)OC1C[C@@H](C(=O)Nc2ccc(-c3ccc(C(=O)N[C@@H](C(=O)N[C@@H]4C(=O)N5[C@@H]4SC(C)(C)[C@@H]5C(=O)O)c4ccc(O)cc4)c(=O)[nH]3)cc2)N(C(C)=O)C1 (some centres unmarked)
